The IC50 is the point on the concentration scale where inhibition reaches its midpoint.

The structures appear in SMILES notation.

What all share (format): cell-based, human
In data set [1] the test system is PC3 cells. In words: Invasion assay of prostate cancer cells with conditioned medium of macrophages. Conditions: conditioned medium of M2 macrophages and M2-like TAMs pretreated with peptide. On the procedure: To obtain conditioned media of tumor (TCM), PC3 cells were seeded at 2×10^5 cells/well in culture medium in 24-well plates (Corning Inc). After 24 hours, the medium was changed to serum-free RPMI1640 medium and the cells were incubated for 24 hours. For conditioned media of macrophages, THP-1 cells were seeded at 2×10^5 cells/well in culture medium in 24-well plates (Corning Inc) and incubated with 100 nM PMA for 24 h. Cells were polarized into M0, M1, and M2 macrophages or TAM macrophages by TCM and changed to serum-free RPMI1640 medium. After 24 hours, the medium was changed to serum-free RPMI1640 medium and the cells were incubated for 24 hours. Supernatants were harvested and clarified with syringe filters (0.2 μm, Milipore). […]
The invasiveness of prostate cancer cells treated with conditioned media of macrophages was tested according to the manufacturer's instructions for the invasion assay (Corning Inc.) with slight modifications. Briefly, invasiveness was assessed using 24-well plates fitted with polycarbonate 8-μm pore membrane inserts (Corning Inc.) pre-coated with Matrigel (200-300 μg/mL) for 2 hours at 37° C. […] Five randomly selected fields per membrane were counted under a light microscope (Olympus). The invasion index was calculated from the number of cells that migrated in response to conditioned medium compared with the control without conditioned medium.

Data set [2] in a line: Cell viability test (CCK-8) of dKLA-conjugated alanine-substituted peptides. To be noted: FIG. 25; read-out: cytotoxicity IC50 in M2 macrophages. On the procedure: (§1) THP-1 monocytes were differentiated into macrophages (M0) by 24 h incubation with 100 nM phorbol 12-myristate 13-acetate (PMA, Sigma) followed by 24 h incubation in RPMI medium (Invitrogen). Macrophages were polarized in M1 macrophages (M1) by incubation with 20 ng/ml of IFN-γ (Prospec) and 100ng/m1 of LPS (Sigma). Macrophage M2 polarization(M2) was obtained by incubation with 20 ng/ml of interleukin (IL) 4 (Prospec) and 20 ng/ml of interleukin 13 (Pro spec).
(§2) […] Cell viability was analyzed using the CCK-8 assay: CCK-8 reagent (Enzo Life Sciences) was added to each well; incubation was continued for 2 hours, and absorbance was measured at 450 nm with a microplate reader (Molecular Devices).

For data set [3], the system named is M2 macrophages. The description is as above. Conditions: 1.5 μM, 1 hour then 24 hours, CCK-8, compared to control M2 macrophage. On the procedure:
as §1, §2

Turning to `CC[C@H](C)[C@H](NC(=O)[C@H](CC(C)C)NC(=O)[C@H](C)NC(=O)[C@@H]1CCCN1C(=O)[C@H](CC(C)C)NC(=O)CNC(=O)[C@@H](NC(=O)[C@@H](NC(=O)[C@H](CC(C)C)NC(=O)[C@@H](NC(C)=O)C(C)C)[C@@H](C)O)[C@@H](C)O)C(=O)N[C@@H](CO)C(=O)N[C@@H](Cc1c[nH]c2ccccc12)C(=O)N[C@H](C(=O)N[C@@H](CCCCN)C(=O)N[C@@H](CCCNC(=N)N)C(=O)N[C@@H](CCCCN)C(=O)N[C@@H](CCCNC(=N)N)C(=O)N[C@@H](CCC(N)=O)C(=O)N[C@@H](CCC(N)=O)C(=O)NCC(=O)NCC(=O)NCC(=O)NCC(=O)N[C@@H](CO)C(=O)N[C@H](CCCCN)C(=O)N[C@H](CC(C)C)C(=O)N[C@H](C)C(=O)N[C@H](CCCCN)C(=O)N[C@H](CC(C)C)C(=O)N[C@H](C)C(=O)N[C@H](CCCCN)C(=O)N[C@H](CCCCN)C(=O)N[C@H](CC(C)C)C(=O)N[C@H](C)C(=O)N[C@H](CCCCN)C(=O)N[C@H](CC(C)C)C(=O)N[C@H](C)C(=O)N[C@H](CCCCN)C(=O)O)[C@@H](C)CC` [MpepK], the “invasion of PC3 cells” value in data set [1] is recorded as “significantly reduced”. The IC50 in data set [2] was 1120 nM. Moreover, in data set [3], the “cytotoxic effect in M2 macrophages” value is “significant cytotoxic effects”.

For the origin of these results see US20220354957A1, “PEPTIDES TARGETING MACROPHAGES, AND CONJUGATES, COMPOSITIONS, AND USES THEREOF” (Twinpig Biolab, Inc., priority 2021, published 2022).
